Reference: patent US5591728A, “New phosphonic acid compounds” (Adir Et Compagnie, priority 1993, dated 1997)
pIC50: −log10 of the molar value. Structures can show the parent of a compound that is named as a salt.

Experiments:
[1] = test system: big ET-1-induced pressor responses (inhibition of ECE); experiment: In vivo study on pithed rats: big ET-1-induced pressor response; design: species or system Sprague-Dawley rats; conditions: for IC50 with respect to big ET-1: big ET-1 1 nmol/kg injection, product given by infusion
Description: (§1) Sprague-Dawley rats (300400 g) are anesthetized with ether. The animals are then pithed and placed under artificial respiration. The vagus nerves are sectioned and the carotid arteries ligated. A catheter is introduced into one of the carotid arteries to measure arterial blood pressure. A second catheter is introduced into the vein of the penis to enable substances to be injected.
After a stabilization period, the animals receive an injection of endothelin-1 (ET-1; 0.5 nmol/kg) or its precursor, big endothelin-1 (big ET-1; 1 nmol/kg).

[2] = test system: pressor responses obtained with big ET-1; experiment: In vitro study on perfused isolated rat kidney: pressor response to big ET-1; design: species or system male Wistar rats; conditions: big ET-1 0.4 nmol bolus
Description: The studies are performed on kidneys prepared from male Wistar rats (300400 g). The rats are anesthetized with pentobarbitone sodium (50 mg/kg i.p.) and the left kidney is prepared so as to permit perfusion with Tyrode solution. The variations in perfusion pressure are measured continuously. The perfusion flow rate is 6 ml/min. After stabilization, a bolus injection of ET- 1 (0.03 nmol) or of big ET-1 (0.4 nmol) is performed and the pressor response is recorded. […] The IC50 values of the products are calculated and the results are given in μM.

[3] = test system: ET-1-induced hypertension; experiment: In vivo study on pithed rats: ET-1-induced hypertension; design: species or system Sprague-Dawley rats; conditions: ET-1 0.5 nmol/kg
Description: as §1
After a stabilization period, the animals receive an injection of endothelin-1 (ET-1; 0.5 nmol/kg) or its precursor, big endothelin-1 (big ET-1; 1 nmol/kg). The pressor responses are recorded and, after the pressure has returned to its initial value (1 h 30 min to 2 hours), a second injection of ET-1 or of big ET-1 is given in the presence or absence of an infusion of a product of the invention or of the reference substance, phosphoramidon. Phosphoramidon and the products of the invention had no effect on ET-1-induced hypertension.

Molecule	IC50 with respect to big ET-1 [1] [µg/kg/min]	pIC50 [2]	inhibition of big ET-1-induced pressor responses ([1]; big ET-1 1 nmol/kg, in words)	effect on ET-1-induced hypertension [3]	inhibition of pressor responses obtained with big ET-1 ([2]; in words)
CCOC(=O)[C@H](Cc1c[nH]c2ccccc12)NC(=O)[C@H](CC(C)C)NP(=O)(O)OCCCN [Example 9, N-[(3-Aminopropoxy)hydroxyphosphinyl]-(S)Leu-(S)Trp-OEt lithium salt]	200				
CC(C)C[C@H](NP(=O)(O)OCCO)C(=O)N[C@@H](Cc1c[nH]c2ccccc12)C(=O)O [Example 4, N-[(2-Hydroxyethoxy)hydroxyphosphinyl]-(S)Leu-(S)Trp-OH disodium salt]	430	5.15			
N-[((R)-2,3-Dihydroxypropoxy)hydroxyphosphinyl]-(S)Leu-(S)Trp-OH dilithium salt [Example 10]	230				
CC(C)C[C@H](NP(=O)(O)OCC(O)CO)C(=O)N[C@@H](Cc1c[nH]c2ccccc12)C(=O)O (stereo partly drawn) [Example 1, N-[(2,3-Dihydroxypropoxy)hydroxyphosphinyl]-(S)Leu-(S) Trp-OH disodium salt]	100	5.40			
CC(C)C[C@H](NP(=O)(O)OCCC(O)CO)C(=O)N[C@@H](Cc1c[nH]c2ccccc12)C(=O)O (stereo partly drawn) [Example 12, N-[(3,4-Dihydroxybutoxy)hydroxyphosphinyl]-(S)Leu-(S) Trp-OH dilithium salt]	140				
CC(C)C[C@H](NP(=O)(O)O[C@@H]1O[C@@H](C)[C@H](O)[C@@H](O)[C@H]1O)C(=O)N[C@@H](Cc1c[nH]c2ccccc12)C(=O)[O-].CC(C)C[C@H](NP(=O)(O)O[C@@H]1O[C@@H](C)[C@H](O)[C@@H](O)[C@H]1O)C(=O)N[C@@H](Cc1c[nH]c2ccccc12)C(=O)[O-].[Na+].[Na+] [Phosphoramidon, N-[α-(S)-(rhamnopyranosyloxy) hydroxyphosphinyl]-(S)leu-(S) Trp-OH disodium salt, reference compound]	125	6.05	inhibited big ET-1-induced pressor responses in a dose-dependent manner	no effect	substantially inhibited
N-[((S)-2,3-Dihydroxypropoxy)hydroxyphosphinyl]-(S)Leu-(S)Trp-OH dilithium salt [Example 11]	100				
CC(C)C[C@H](NP(=O)(O)OC(CO)CO)C(=O)N[C@@H](Cc1c[nH]c2ccccc12)C(=O)O [Example 8, N-{[(1-Hydroxymethyl-2-hydroxy)ethoxy]hydroxyphosphinyl]-(S)Leu-(S) Trp-OH dilithium salt]	480				
CCOC(=O)[C@H](Cc1c[nH]c2ccccc12)NC(=O)[C@H](CC(C)C)NP(=O)(O)OCCO [Example 3, N-[(2-Hydroxyethoxy)hydroxyphosphinyl]-(S)Leu-(S)Trp-OEt disodium salt]	280	5.30			
